From paper PMC12270681 (The Journal of Biological Chemistry, 2025)
“And” between values parts separate entries of the source, which are not always exact repeats. Equal values may be shown once.

Legend:
Cb-cParM [1] = molecular target: T1, Cb-cParM (Clostridium botulinum, UniProt A0A9Y2YAC8); settings: polymerised with 3 mM ATP, 30 min; Mg2+; pH 7.5; 25 °C; nucleotide hydrolysed to ADP in the filament
T1 construct: gene EXN02_10840

Dh-cParM1 [2] = molecular target: T2, Dh-cParM1 (Desulfitobacterium hafniense, UniProt Q24VP4); test: cryo-EM structure of filament ([…] A); type: binding; parameters: gene DSY2109; synthetic gene, N- or C-side 8xHis tag with HRV 3C site, tag cut; E. coli BL21(DE3); polymerises into helical filaments; settings: polymerised with 5 mM ATP; 40 mM HEPES pH 7.5, 400 mM KCl, 1 mM MgCl2; nucleotide state not unambiguous, ADP fits better
T2 sequence (Q24VP4 1-369): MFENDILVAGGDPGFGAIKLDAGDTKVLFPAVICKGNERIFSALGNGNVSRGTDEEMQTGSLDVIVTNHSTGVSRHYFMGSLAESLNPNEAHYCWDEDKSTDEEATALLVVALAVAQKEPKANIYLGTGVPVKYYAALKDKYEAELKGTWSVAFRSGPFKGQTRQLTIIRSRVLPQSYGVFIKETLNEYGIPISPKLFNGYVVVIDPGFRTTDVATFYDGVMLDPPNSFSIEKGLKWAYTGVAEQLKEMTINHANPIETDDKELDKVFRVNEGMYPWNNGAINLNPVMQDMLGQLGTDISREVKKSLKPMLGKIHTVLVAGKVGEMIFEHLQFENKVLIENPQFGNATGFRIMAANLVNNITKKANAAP

Dh-cParM1 [3] = molecular target: T2, Dh-cParM1; parameters: gene DSY2109; settings: 5 mM nucleotide (sedimentation); pH 7.5, Mg2+, 24 °C
Cb-cParM [4] = molecular target: T1, Cb-cParM; settings: polymerised with 3 mM GTP, 30 min, class 1; Mg2+; pH 7.5; 25 °C; nucleotide hydrolysed to GDP in the filament
Cb-cParM [5] = molecular target: T1, Cb-cParM; settings: class 2 (30 min) and 1 min with 3 mM GTP; Mg2+; pH 7.5; 25 °C; low resolution, nucleotide likely GTP or GDP-Pi
Dh-cParM1 [6] = molecular target: T2, Dh-cParM1; test: polymerisation by sedimentation, EM; type: binding; parameters: gene DSY2109; synthetic gene, N- or C-side 8xHis tag with HRV 3C site, tag cut; E. coli BL21(DE3); polymerises into helical filaments; settings: 5 mM nucleotide (sedimentation); pH 7.5, Mg2+, 24 °C
[7] = molecular target: Dh-cParM1, chromosome-encoded ParM of the Desulfitobacterium hafniense Y51 Dh-cParMR-1 cassette (Desulfitobacterium hafniense Y51); test: co-sedimentation

T1 sequence (A0A9Y2YAC8 1-285): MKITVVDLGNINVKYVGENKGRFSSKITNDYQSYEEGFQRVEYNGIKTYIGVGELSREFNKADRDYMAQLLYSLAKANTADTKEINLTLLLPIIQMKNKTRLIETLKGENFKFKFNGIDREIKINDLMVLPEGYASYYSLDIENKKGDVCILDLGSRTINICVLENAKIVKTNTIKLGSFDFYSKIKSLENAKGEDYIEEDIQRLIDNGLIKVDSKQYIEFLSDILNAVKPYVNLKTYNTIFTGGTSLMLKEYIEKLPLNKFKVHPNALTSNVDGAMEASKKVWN

With `Nc1ncnc2c1ncn2[C@@H]1O[C@H](COP(=O)(O)OP(=O)(O)O)[C@@H](O)[C@H]1O` [ADP] the “cryo-EM structure of filament (3.9 A)” value (Cb-cParM [1]) was “indicating that the bound nucleotides had been hydrolyzed to ADP and GDP, respectively” and the “cryo-EM structure of filament (4.0 A)” value (Dh-cParM1 [2]) was “ADP appears to fit better into the cryoEM density map than ATP”.
In the case of `Nc1ncnc2c1ncn2[C@@H]1O[C@H](COP(=O)(O)OP(=O)(O)OP(=O)(O)O)[C@@H](O)[C@H]1O` [ATP], the “polymerisation by light scattering, sedimentation, EM” value (Dh-cParM1 [3]) is reported as “Dh-cParM1 polymerization induced by ATP was followed by light scattering”.
In the case of `Nc1nc2c(ncn2[C@@H]2O[C@H](COP(=O)(O)OP(=O)(O)O)[C@@H](O)[C@H]2O)c(=O)[nH]1` [GDP], the “cryo-EM structure of filament (3.5 A)” value (Cb-cParM [4]) is reported as “indicating that the bound nucleotides had been hydrolyzed to ADP and GDP, respectively”.
`Nc1nc2c(ncn2[C@@H]2O[C@H](COP(=O)(O)OP(=O)(O)OP(=O)(O)O)[C@@H](O)[C@H]2O)c(=O)[nH]1` [GTP] was tested, and the “cryo-EM structure of filament (6.5 A and 8.6 A); Pi release also measured” value (Cb-cParM [5]) was “suggesting that they were in the state before the phosphate release” and the “polymerisation by sedimentation, EM” value (Dh-cParM1 [6]) was “Filaments were induced by the addition of ATP, GTP, and non-hydrolysable nucleotides”.
With “Dh-cParM1, chromosome-encoded ParM of the Desulfitobacterium hafniense Y51 Dh-cParMR-1 cassette (natural protein)” the residual concentration in the supernatants (compared with a critical concentration) [7] was 4 µM and 5 µM.
